Entries after “also recorded” stand apart in the source; their conditions may differ. Counter-ions that a name gives are not always drawn.
Legend:
[1] = system: SOM-dependent feedback loop, CA1 PCs; assay: Feedback loop-activating protocol (FLAP) in CA1 PCs; format: cell-based, mice
[2] = target: recombinant GluN2D-containing receptors (Rattus norvegicus, UniProt Q62645); settings: recombinant GluN2D-containing receptors expressed in mammalian cells; cited from earlier work
[3] = system: NMDAR currents in somatostatin positive Interneurons (SOM); assay: NMDAR currents in voltage-clamp recordings, SOM interneurons; settings: +40 mV, CNQX, bath application 10 μM
[4] = system: NMDAR currents in CA1 pyramidal cells; assay: NMDAR currents in voltage-clamp recordings, CA1 pyramidal cells; format: cell-based, mice; settings: +40 mV, CNQX, bath application 10 μM
Method: (§1) After 20 min resting time at 35° C., slices were kept at room temperature in aCSF and transferred into the recording chamber (volume approx. 2-3 ml) and continuously superfused with aCSF (rate approx. 5-10 ml/min-). Differential interference contrast video microscopy was used to identify location of CA1 pyramidal neurons (Zeiss Axioskop 2 FS plus, Zeiss Microscopy, Germany). Beside optical identification neurons were classified according to their characteristic firing frequency adaptation to long depolarising current pulses. Borosilicate glass tubes (2.0 mm outer diameter, 0.5 mm wall thickness; Hilgenberg, Germany) were used to pull patch pipettes. Pipettes with a resistance of 5-10 MΩ were used and series resistance of 10-50 MΩ was compensated by bridge balance. Patch pipettes were filled with an internal solution containing (in mM) for EPSP-measurements: 132K-gluconate, 20KCL, 2MgCl2, 10Hepes, 0.1EGTA, 4 Na2ATP, 0.3NaGTP. PH was adjusted to 7.2 with KOH. For current measurements: 135Csgluconate, 2CsCl, 5 QX314, 10 Hepes, 10EGTA, 2MgCl2, 2Na2ATP, 2TEACI, pH was adjusted to 7.2 with HCl. Osmolarity (280-300 mosmol/1) was controlled at the beginning of each experimental day with Osmomat (Gonotec GmbH, Germany).

[5] = system: CA3-CA1 synapse in hippocampal brain slices of CDM mice; assay: aLTP/aLTD inducibility in hippocampal brain slices of CDM mice after in vivo treatment; settings: for stress-induced LTP blockade, reversal: NAB-14 in vivo
Method: Animals were preoxygenated in a 100% oxygen atmosphere for 5 min before cervical dislocation and decapitated according to national and institutional guidelines. Transverse 300 […] were cut from hippocampus with a Vibratome (VT1200, Leica, Japan). Slices were prepared in artificial cerebrospinal fluid (ACSF) containing (in mmol/I): 125 NaCl, 25 NaHCO3, 1.25 NaH2PO4, 2.5 KCL, 1 MgCl2, 27 Glucose, 2 CaCl2) bubbled with carbogen (95% O2, 5% CO2).
as §1
A stimulation pipette (patch pipette with 1-3 MΩ resistance when filled with internal solution) was placed superficially in the stratum radiatum of the CA1 region in approximately […] distance to the pyramidal cell layer. Subthreshold excitatory postsynaptic potentials (EPSPs, 2 7 mV) were evoked by Schaffer collateral stimulation with voltage pulses of 10-80 V (frequency of 0.1 Hz, duration of 200 μs) using a stimulus isolator (Model 2100 Isolated pulse stimulator, Carlsborg, U.S.A.). Resting membrane potentials were between −75 and −65 mV and holding potential was −70 mV. 50 ms current test pulses (leading to 5-10 mV hyperpolarization) were applied to control input and series resistances after every 10th EPSP. EPSPs were combined with APs triggered by short (3 ms) current application of 900 pA via the patch-clamp electrode. EPC-10 amplifiers (HEKA, Germany) were used and signals were filtered at 5 kHz. Patchmaster NEXT software (Version 1.2, HEKA, Germany) was used for data acquisition and experiments were performed at room temperature.
aLTP: Five EPSPs and five postsynaptic APs were paired at 100 Hz with a 5 ms delay (AP after EPSP). Five of these bursts of synchronized EPSP→AP pairs were applied at theta frequency (5 Hz), followed by an interval of 10 sec and 4 more theta blocks, resulting in 125 EPSP/AP pairings.
aLTD: 360 postsynaptic APs were pared with 360 EPSPs with a delay of 20-30 ms between each AP/EPSP pairing at a frequency of 1 Hz. 1 Hz LTD: 600 EPSPs were elicited at a frequency of 1 Hz whilst CA1 pyramidal cell membrane potential was hold at −60 mV.
Long-term plasticity or molecular analyses were assessed as described above after the induction phase of the CDM and the specific treatment.
EPSP measurement: For baseline measurement, the mean amplitudes of 30 consecutive EPSPs before the induction protocol were calculated. 25 min after LTP induction the mean amplitude of 30 consecutive EPSPs was calculated and compared to the baseline of the same measurement. Changes of EPSP amplitudes were expressed as percentages of the baseline measurement and analysed for each experimental group applying a two-tailed Wilcoxon test. The differences between separate experimental groups were assessed using the Mann-Whitney test, not assuming normal distribution. […]

[6] = system: mice subjected to the chronic despair model (CDM); assay: Chronic despair model (CDM) swim test, immobility time; format: in vivo; settings: CDM mice, test day
Method: Induction phase: Mice were forced to swim in a glass cylinder (0 26 cm, 60 cm high) filled to 25 cm with 25° C. warm water for 10 min on 5 consecutive days. After the swimming, the animals were kept in their cages for two days before treatment and experiment readout was performed. The immobility time was measured in each session.
Behavioral Readout: After the treatment intervention, animals were either tested in an additional swim session (test day) to measure immobility time or tested in the InteliCage using the Nose-pokes sucrose preference test. For the assessment of the immobility time, mice were videotaped and two independent raters who were blinded to the experimental group analyzed the videos. Immobility time was defined as the cumulative time that the animals spend stationary with only enough movements of the tails or the forepaws to keep the head above the water surface. No distance is actively travelled except for passive floating, no directed movement of the front paws observed and the body of the animal mostly oriented parallel to the walls of the cylinder.

[7] = Side effects in in vivo experiments; parameters: species or system mice
[8] = R,S-ketamine injected shortly before each swim session in the CDM

recombinant GluN2D-containing receptors, sequence (Q62645 28-1323, other chains not shown): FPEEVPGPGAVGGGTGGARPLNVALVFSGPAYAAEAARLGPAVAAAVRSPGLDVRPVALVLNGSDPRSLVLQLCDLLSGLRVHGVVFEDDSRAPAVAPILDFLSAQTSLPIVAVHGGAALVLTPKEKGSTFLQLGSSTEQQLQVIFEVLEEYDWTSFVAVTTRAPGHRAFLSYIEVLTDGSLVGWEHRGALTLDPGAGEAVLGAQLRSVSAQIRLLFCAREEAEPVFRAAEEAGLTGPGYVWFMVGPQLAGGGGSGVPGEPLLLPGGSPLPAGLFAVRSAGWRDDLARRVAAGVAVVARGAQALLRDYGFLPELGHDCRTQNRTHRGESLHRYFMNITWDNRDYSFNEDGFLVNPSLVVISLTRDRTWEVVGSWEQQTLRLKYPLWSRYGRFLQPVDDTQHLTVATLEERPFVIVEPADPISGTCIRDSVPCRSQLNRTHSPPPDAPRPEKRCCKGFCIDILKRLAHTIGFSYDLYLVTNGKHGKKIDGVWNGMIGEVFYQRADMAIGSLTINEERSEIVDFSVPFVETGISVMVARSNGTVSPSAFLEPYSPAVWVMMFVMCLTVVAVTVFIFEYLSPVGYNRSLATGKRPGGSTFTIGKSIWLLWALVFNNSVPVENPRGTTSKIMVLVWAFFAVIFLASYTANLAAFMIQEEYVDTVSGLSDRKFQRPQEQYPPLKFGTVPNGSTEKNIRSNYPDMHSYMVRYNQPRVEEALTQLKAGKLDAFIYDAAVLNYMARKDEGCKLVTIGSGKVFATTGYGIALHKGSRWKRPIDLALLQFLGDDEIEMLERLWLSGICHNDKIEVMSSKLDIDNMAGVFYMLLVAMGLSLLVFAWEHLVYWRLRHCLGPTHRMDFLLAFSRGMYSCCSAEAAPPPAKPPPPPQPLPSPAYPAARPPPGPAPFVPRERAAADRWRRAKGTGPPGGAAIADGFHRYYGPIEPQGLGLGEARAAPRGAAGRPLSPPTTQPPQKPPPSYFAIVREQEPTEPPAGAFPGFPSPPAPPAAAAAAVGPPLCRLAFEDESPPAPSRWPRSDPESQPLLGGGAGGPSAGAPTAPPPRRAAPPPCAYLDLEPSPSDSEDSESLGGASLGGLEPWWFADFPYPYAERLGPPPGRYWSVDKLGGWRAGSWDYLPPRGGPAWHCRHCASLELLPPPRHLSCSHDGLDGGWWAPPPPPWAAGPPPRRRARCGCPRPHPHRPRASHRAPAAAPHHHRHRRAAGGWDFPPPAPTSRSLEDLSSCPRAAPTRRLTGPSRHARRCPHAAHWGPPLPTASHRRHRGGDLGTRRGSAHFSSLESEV

CCN(CC)C(=O)Oc1ccc(C(=O)Nc2cccc3cc[nH]c23)cc1 [NAB-14]
EPSP amplitude in the absence of AP bursts [1]: neither NAB14 nor diazepam wash-in significantly altered the EPSP amplitude; also recorded: no significant pre/post changes | IC50 [2]: 0.58 µM | amplitude of NMDAR currents in SOM interneurons [3]: significantly reduced; also recorded: reduce the amplitude of NMDAR currents in SOMs | amplitude of NMDAR currents in CA1 pyramidal cells [4]: no relevant NMDAR reduction | stress-induced LTP blockade, reversal ([5]; CDM mice, high dose: 10 mg/kg, 10 μM, 10 mg/kg): completely; also recorded: fully reversed | stress-induced LTP blockade, reversal ([5]; CDM mice, high dose: 10 mg/kg, 10 μM, listed as NAB, 10 mg/kg): fully rehabilitated LTP inducibility | stress-induced LTP blockade, reversal ([5]; CDM mice, low dose: 5 mg/kg, 5 μM): partially | EPSP slope and decay changes found in CDM ([5]; CDM mice, previous NAB-14 treatment): effectively be reversed; also recorded: completely reversing slope increase and decay changes | immobility time ([6]; injection of NAB-14 (5/10 μM as printed)): significantly reduced | side effects [7]: did not show side effects

CNC1(c2ccccc2Cl)CCCCC1=O (stereo not shown) [R,S-ketamine, R,S-Ketamine hydrochloride]
amplitude of NMDAR currents in SOM interneurons ([3]; hydrochloride): significantly stronger than in CA1 pyramidal cells; also recorded: significantly more pronounced in SOMs than in PCs | amplitude of NMDAR currents in SOM interneurons ([3]; listed as Ketamine, hydrochloride): significantly more pronounced inhibitory effect | amplitude of NMDAR currents in CA1 pyramidal cells ([4]; hydrochloride): reduced the amplitude | amplitude of NMDAR currents in CA1 pyramidal cells ([4]; listed as R,S-Ketamine, hydrochloride): significantly blocking NMDAR currents in CA1 cells | stress-induced facilitation of LTD (aLTD, EPSP amplitude min 25 to 30) ([5]; CDM mice, R,S-ketamine injection i.p. after CDM induction, hydrochloride): fully restored; also recorded: reversed this inducibility | stress-induced blockade of LTP inducibility (aLTP, EPSP amplitude min 25 to 30) ([5]; CDM mice, single R,S-ketamine injection i.p. after CDM induction, hydrochloride): fully restored; also recorded: completely reestablishing stress-induced changes | stress-induced aLTD facilitation [5, 8]: weaker effect | stress-induced aLTP blockade [5, 8]: prevented the stress-induced aLTP blockade | immobility time ([6]; 10 mg/kg R,S-ketamine intraperitoneal, vs control): significantly reduced
